# Test results reported in a melting point compilation (Tetko et al.; mined from patent text by program, amines drawn as free bases though some values may be those of a salt).
row,melting point [°C],SMILES
1,211 to 212,CCCc1c2[nH]c(C(=O)OCC)cc(=O)c2cc2c(=O)cc(C(=O)OCC)oc12
2,211,O=C1c2cccc3cc4ccccc4c(c23)C(=O)N1CCO
3,204 to 205,CCOc1cc(C=C2CCN(C(N)=O)C2=O)ccc1O
4,162,CC(=O)OC1CSC(Oc2cncc(-c3ccc(C)cc3Cl)c2)C(OC(C)=O)C1OC(C)=O (centres undefined)
5,166 to 168,CCc1cccc(CC)c1NC(=O)N(CC1CCCCC1)C1CCC(c2ccccc2)CC1 (centres undefined)
6,94 to 95,CNC(=O)C(=O)CCCCCCSc1ccc2ccccc2c1
7,125 to 129,COc1cccc(CCC(C(=O)c2ccc(O)cc2)c2ccccc2)c1 (centres undefined)
8,128 to 130,CCOC(=O)C1Cc2c([nH]c3ccc(C)cc23)C(c2ccccc2)N1 (centres undefined)
9,100 to 101,COC(=O)c1ccc(Br)c(CBr)c1
10,193 to 194,COc1ccc(C2=CC(C3CCN(c4ncnc5c4cnn5C)CC3)C(=O)C3CC=CCC23)cc1OC (centres undefined)
11,115 to 118,COc1cc2cc(CO)cc(-c3ccnc(Cl)c3)c2cc1OC
12,120 to 122,CCOC(=O)c1c(C(F)(F)F)nc(C(F)F)c(C(=O)O)c1NC1CC1
13,154 to 156,Nc1ccc(Br)cc1C(=O)NCCCn1ccnc1
14,179,Cc1c(NC(=O)c2ccc(OC[C@@H]3CCCO3)cc2)ccc2c1cc(CNCC(C)(C)C)n2C
15,112 to 114,O=C1Nc2ccccc2C1CCCCN1CCN(c2cccc(Cl)c2)CC1 (centres undefined)
16,212 to 213,O=[N+]([O-])c1cccc(Nc2nccc(-c3cccnc3)n2)c1
17,104 to 106,O=S(=O)(CCCl)CCC(F)(F)C(F)(F)C(F)(F)C(F)(F)C(F)(F)C(F)(F)F
18,87 to 88,Fc1ccc(N2CCN(CCCN(c3ccccc3)c3ccccc3)CC2)cc1
19,130 to 132,Cc1cc(C(=O)OC(C)(C)C)c(NC(=O)Nc2ccc(Oc3ccccc3)cc2)s1
20,198 to 201,CN1CCC(CNc2ncc3ncnc(Nc4ccc(F)c(Cl)c4)c3n2)CC1
21,54,COC(=O)CCCCSCCCCCCCCCCCOS(=O)(=O)c1ccc(C)cc1
22,160,CCCCC(=O)OC1(C(=O)CO)CCC2C3CC(C)C4=CC(=O)CCC4(C)C3C(O)CC21C (centres undefined)

row,melting point [°C],SMILES
1,187 to 189,CS(=O)(=O)c1cc(C(=O)O)cc(Cl)c1Nc1ccccc1
2,121 to 123,CCCCOC(=O)CNC(=O)c1nc2ccc(Cl)cc2cc1OCc1ccccc1
3,58 to 59,CCCCCCCCCCOc1ccccc1C(N)=O
4,> 230,CCOC(=O)c1cc(-c2csc(-c3ccnc(NC)c3)n2)c(=O)[nH]c1C(C)C
5,134 to 135,CCCCCOc1cc(C(=O)O)cc(N)c1-c1ccccc1
6,63 to 75,COc1cccc(CNc2nccc(-c3cc(N4CCN(CCCN5CCCCC5)CC4)c4cc(OC)ccc4c3)n2)c1
7,153 to 154,COC(C)c1cccc2[nH]c3cnc(C(=O)OC(C)C)c(C)c3c12 (centres undefined)
8,80 to 82,CCOC(=O)C(=O)Nc1cc(C#N)c(Cl)cc1[N+](=O)[O-]
9,185 to 187,NC(=Nc1cccc(CNCCC(=O)Nc2ccc3c(c2)CCN3Cc2cccc3ccccc23)c1)c1cccs1
10,88 to 98,Fc1cccc(-c2nc(-c3ccccn3)no2)c1
11,107 to 108,COc1cccc(CN2C(=O)N(c3cnn(Cc4c(C)noc4C)c3)C(=O)C2(C)C)c1
12,260 to 262,N#Cc1cnc2c(sc3ccccc32)c1Nc1ccc(Cl)cc1Cl
13,70 to 72,CCCCCCCN(C(=O)Nc1ccccc1CCc1cc(C(C)(C)C)c(O)c(C(C)(C)C)c1)C1CCCCCC1
14,62 to 63,CN(C)c1cccc(OCC(=O)NCCO[N+](=O)[O-])c1
15,277 to 278,COc1ccc2c(c1)[C@](C)(NC(=O)c1cc3cccc4c3n1CC4)C(=O)N2c1ccc(F)cc1
16,192 to 193,CN(C)C(=O)N1CCc2ccc(S(N)(=O)=O)cc2CC1
17,108 to 112,CCOC(CNc1nncs1)OCC
18,101,COC(=O)C1(C(F)F)c2ccccc2Oc2ccccc21
19,88 to 90,CC(=O)N1CCN(N=Cc2ccc(F)cc2)CC1
20,224 to 226,COc1ccc(CN2C(=O)c3c(-c4ccccc4Cl)cc4[nH]c5ccc(OC)cc5c4c3C2=O)c(OC)c1
21,165 to 167,CCOCc1nc2c(N)nc(C)c(C)c2n1CCCCNS(C)(=O)=O
22,114 to 116,O=C(NC[C@H]1CC[C@H](C(=O)O)CC1)OCc1ccccc1

row,melting point [°C],SMILES
1,127,Cc1c(Cl)c(C=O)c(C)c2c1CC(C)(C)C2
2,144,CC(C)n1nc(-c2c(-c3ccccc3)nn3ccc(OCCN4CCCCC4)cc23)ccc1=O
3,59 to 59.5,OCC[C@H]1[C@@H]2O[C@@H]2C(F)(F)[C@@H]1O
4,150 to 151,Cc1ccc2c(c1)C(c1ccccc1)(C(F)(F)F)c1cc(C)ccc1O2
5,253,Nc1ccc(Nc2c(NCC3CCCO3)cc(C(=O)O)cc2S(N)(=O)=O)cc1 (centres undefined)
6,158 to 160,CCCCc1nc(Cl)c(CNC(=O)c2cc3c(OCC(O)CN(C(=O)OC(C)(C)C)C(C)C)cccc3[nH]2)n1Cc1ccc(-c2ccccc2C(=O)OC)cc1 (centres undefined)
7,115 to 116,Clc1cc(Cl)c2nc(SCc3ccccc3)nn2c1
8,208 to 209,Cc1c(C(=O)N[C@H](C)[C@](O)(Cn2cncn2)c2ccc(F)cc2F)cnn1-c1ccc(F)cc1F
9,193,COC(=O)c1ccc(Cl)c(C#N)c1
10,150 to 152,O=C(CCn1ccnc1)N1c2ccccc2Sc2ccccc21
11,95 to 97,COc1cc(CC(=O)NCCOc2ccc(C)c(C)c2)ccc1OCCN
12,118 to 121,O=c1c2ccccc2cc(Cl)c2ccccc12
13,130 to 131,CCOC(=O)C[C@H]1O[C@H](c2ccc(OCc3ccccc3)cc2OC)c2cc(Cl)ccc2N(CC(C)(C)C)C1=O (relative stereo)
14,154 to 156,CCCc1nc2c(N)nc3ccccc3c2n1CCCC(=O)OCC
15,205 to 206,Clc1ccc(Nc2ncnc(-c3ccnc(N4CCCCC4)c3)n2)cc1
16,134 to 136,COC1=CC(=O)C(O)=C(CCCCCCCC2OC2CCCCCCCC2=C(O)C(=O)C=C(OC)C2=O)C1=O (centres undefined)
17,120 to 122,COCn1nc(Nc2cnccn2)c2cc(-c3ncccc3Cl)cc(OCCc3ccccn3)c21
18,159 to 160,CC(C)Oc1c(C(=O)O)sc(-c2ccccc2)c1Br
19,130,CCNC(=O)Oc1cccc(CCNC(=O)/C=C/c2cccnc2)c1
20,310 to 311,Cc1cc(C)cc(C(=O)c2c(C(C)C)c(=O)[nH]c(=O)n2Cc2cc(C)nc(N3C(=O)c4ccccc4C3=O)c2)c1
21,144 to 145,O=C(CCc1ccccc1)N[C@H](Cc1ccc(C(F)(F)F)cc1)[C@@H](O)c1ccc(F)cc1 (racemic)
22,108,CCOC(=O)CC(C(=O)c1ccc(Cl)cc1)C(=O)c1ccc(Cl)cc1

row,SMILES,melting point [°C]
1,COc1cc([N+](=O)[O-])ccc1COP(N)(=O)N(CCCl)CCCl (centres undefined),102 to 104
2,CC1(CO)C(=O)N(c2ccc(C#N)c(C(F)(F)F)c2)C(=O)N1CC#N (centres undefined),171
3,C=CCN1C(=O)C(F)N=C(c2ccccc2)c2cc(Cl)ccc21 (centres undefined),138 to 140
